# Experimental data as given in US20120035217A1, “Bis Aromatic Compounds for Use as LTC4 Synthase Inhibitors” (BIOLIPOX AB, priority 2009, published 2012).
# Target: T1, Recombinant human LTC4 synthase (Homo sapiens, UniProt Q16873)
# T1 construct: made in house; host or cells: Pichia pastoris ('Piccia pastoralis' [sic])
# T1 sequence (Q16873 1-150): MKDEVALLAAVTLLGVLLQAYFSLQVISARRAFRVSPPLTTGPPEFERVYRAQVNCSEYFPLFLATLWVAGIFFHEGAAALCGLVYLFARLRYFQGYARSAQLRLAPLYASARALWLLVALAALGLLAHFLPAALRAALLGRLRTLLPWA
# Experiment: Biological in vitro assay: LTC4 synthase conversion of LTA4 to LTC4, HTRF detection
# Assay type: biochemical
# Details: for % inhibition: total concentration of title compound in the assay 10 μM
# Description: In the assay, LTC4 synthase catalyses the reaction where the substrate LTA4 is converted to LTC4. Recombinant human LTC4 synthase is expressed in Piccia pastoralis and the purified enzyme is dissolved in 25 mM tris-buffer pH 7.8 supplemented with 0.1 mM glutathione (GSH) and stored at −80° C. The assay is performed in phosphate buffered saline (PBS) pH 7.4 and 5 mM GSH in 384-well plates.
# The following is added chronologically to each well:
# 1. 48 μL LTC4 synthase in PBS with 5 mM GSH. The total protein concentration in this solution is 0.5 μg/mL. 2. 1 μL inhibitor in DMSO (final concentration 10 μM). 3. Incubation of the plate at room temperature for 10 min. 4. 1 μL LTA4 (final concentration 2.5 μM). 5. Incubation of the plate at room temperature for 5 min. 6. 10 μL of the incubation mixture is analysed using homogenous time resolved fluorescent (HTRF) detection.
IC50,% inhibition,SMILES
217 nM,,"CN(c1ccc(Cl)cc1)c1ccc(C(=O)c2ccc(-c3nccn3-c3ccccc3)c(C(=O)O)c2)nc1 [Example 9, 5-{5-[(4-Chlorophenyl)(methyl)amino]picolinoyl}-2-(1-phenylimidazol-2-yl)benzoic acid]"
36 nM,100%,"CN(c1ccc(Cl)cc1)c1ccc(C(=O)c2ccc(-n3nncc3-c3cccc(Cl)c3)c(C(=O)O)c2)cc1 [Example 3:2, 5-{4-[(4-Chlorophenyl)(methyl)amino]benzoyl}-2-[5-(3-chlorophenyl)-1,2,3-triazol-1-yl]benzoic acid]"
214 nM,99%,"CN(c1ccc(Cl)cc1)c1ccc(C(=O)c2ccc(-n3cc(-c4cccc(Cl)c4)nn3)c(C(=O)O)c2)cc1 [Example 2:2, 5-{4-[(4-Chlorophenyl)(methyl)amino]benzoyl}-2-[4-(3-chlorophenyl)-1,2,3-triazol-1-yl]benzoic acid]"
326 nM,99%,"CN(c1ccc(Cl)cc1)c1ccc(C(=O)c2ccc(-n3cc(-c4ccccc4)nn3)c(C(=O)O)c2)cc1 [Example 2:1, 5-{4-[(4-Chlorophenyl)(methyl)amino]benzoyl}-2-(4-phenyl-1,2,3-triazol-1-yl)-benzoic acid]"
288 nM,97%,"Cc1cc2ncn(-c3ccc(C(=O)c4ccc(N(C)c5ccc(Cl)cc5)cc4)cc3C(=O)O)c2cc1C [Example 1, 5-{4-[(4-Chlorophenyl)(methyl)amino]benzoyl}-2-(5,6-dimethyl-1-benzimidazolyl)-benzoic acid]"
154 nM,100%,"CN(c1ccc(Cl)cc1)c1ccc(C(=O)c2ccc(-n3nncc3-c3ccccc3)c(C(=O)O)c2)cc1 [Example 3:1, 5-{4-[(4-Chlorophenyl)(methyl)amino]benzoyl}-2-(5-phenyl-1,2,3-triazol-1-yl)-benzoic acid]"
